The source of these data is patent US20240084258A1, “METHOD FOR PREPARING BROWN ADIPOCYTE” (KYOTO PREFECTURAL PUBLIC UNIVERSITY CORPORATION, priority 2015, published 2024).

Each structure is given as a SMILES string.

Type in all cases: cell-based
The subject of experiment [1] is human dermal fibroblasts (HDFs). Kind of experiment: Oil Red O staining of fibroblasts cultured with compounds (Example 1). To be noted: adipocyte induction medium with T3 1 nM and Rosiglitazone 1 μM, D4476 2 μM, SB431542 2 μM, ALK5 Inhibitor II 2 M, Pifithrin alpha 5 μM, day 14, FIG. 1. On the procedure:
The next day, the culture supernatant was removed by suction and, as described in the Figure, a normal medium, an adipocyte induction medium, or an adipocyte induction medium added with the compound and the like was added at 500 μL/well.
The adipocyte induction medium is a 10% FBS-added DMEM+MDI medium (10% FBS-added DMEM supplemented with 0.5 mM isobutylmethylxanthine (IBMX), 0.5 μM dexamethason and 1 μg/mL Insulin).
The concentrations of the additives are as follows: • T3: 1 nM • Rosiglitazone: 1 μM • D4476: 2 μM • Pifithrin alpha [p53 inhibitor]: 5 μM • SB431542: 2 μM • ALK5 Inhibitor II: […].
The culture medium was substituted by a fresh one every 3-4 days and the cells were cultured up to day 14.
After washing 3 times with sterile distilled water, Oil Red O staining solution was added, and the mixture was incubated at room temperature for 15 min. Then, the cells were washed with sterile distilled water and photographed at a magnification of 100 with a phase contrast microscope.

Experiment [2] has the same test system. The experiment can be described thus: UCP1 gene mRNA by real time RT-PCR (Example 2). Particulars: induction medium + T3 + Rosiglitazone, D4476 2 μM, FSK 2 μM, PD0325901 1 μM, SB431542 2 μM, day 14, FIG. 2. On the procedure:
(§1) This was seeded in a 24-well plate at a concentration of 1×10^4 cells/well (day 0), and culturing was started at 5% CO2/95% humid air, 37° C. The next day, the culture supernatant was removed by suction and, as described in the Figure, a normal medium, an adipocyte induction medium, or an adipocyte induction medium added with each low-molecular compound and the like was added at 500 μL/well. […] The concentrations of the additives are as follows: • T3: 1 nM • Rosiglitazone: 1 μM • D4476: 2 μM • Pifithrin alpha [p53 inhibitor]: 5 μM • Forskolin (FSK): 2 μM • PD0325901: 1 μM • SB431542: 2 μM. The culture medium was substituted by a fresh one every 3-4 days and the cells were cultured up to day 14.
On the technique in general: In qPCR the cycle at which signal appears reflects the starting amount.

For experiment [3] the test system is unchanged. Kind of experiment: CIDEA gene mRNA by real time RT-PCR (Example 4). Particulars: induction medium + T3 + Rosiglitazone, compounds 2 μM, day 14, FIG. 4. On the procedure: (§2) The next day, the culture supernatant was removed by suction and, as described in the Figure, a normal medium, an adipocyte induction medium, or an adipocyte induction medium added with each compound and the like was added at 500 μL/well. […] The concentrations of the additives are as follows: • T3: 1 nM • Rosiglitazone: 1 μM • D4476: 2 μM • Pifithrin alpha [p53 inhibitor]: 5 μM • SB431542: 2 μM • ALK5 Inhibitor II: 2 μM. The culture medium was substituted by a fresh one every 3 4 days and the cells were cultured up to day 14.

The test system is the same in experiment [4]. The experiment can be described thus: AdipoQ gene mRNA by real time RT-PCR (Example 6). Particulars: induction medium + T3 + Rosiglitazone, D4476, SB431542, ALK5 Inhibitor II 2 μM, PD0325901 1 μM, day 14, FIG. 6. As to the method:
as §1, with “with each low-molecular-weight compound and” for “with each low-molecular compound and”, “D4476: 2 μM. • Pifithrin” for “D4476: 2 μM • Pifithrin”, “μM • PD0325901: 1” for “μM • Forskolin (FSK): 2 μM • PD0325901: 1”, “• SB431542: 2 μM • ALK5 Inhibitor II: 2 μM.” for “• SB431542: 2 μM.”

Experiment [5] has the same test system. The experiment can be described thus: BODIPY staining of lipid droplets (Example 7). To be noted: induction medium + T3 + Rosiglitazone, compounds 2 μM, day 14, FIG. 7A, 7B. On the procedure: as §2, with “each low-molecular-weight” for “each”, “[…]:” for “D4476:”, “SB431541:” for “Pifithrin alpha [p53 inhibitor]: 5 μM • SB431542:”, “inhibitor” for “Inhibitor”, “3-4” for “3 4”, “14. […] The cells were photographed at a magnification of 200 with a fluorescence microscope and the fluorescence intensity was measured.” for “14.”

Experiment [6] shares this test system. The experiment can be described thus: UCP1 protein immunostaining, fluorescence intensity (Example 8). To be noted: for UCP1 protein expression by immunostaining (conversion to brown adipocytes): induction medium + T3 + Rosiglitazone, D4476, SB431541, ALK5 inhibitor II, FSK 2 μM, PD0325901 1 μM, day 14, FIG. 8A-C. As to the method:
as §2, with “[…]:” for “D4476:”, “SB431541:” for “Pifithrin alpha [p53 inhibitor]: 5 μM • SB431542:”, “inhibitor” for “Inhibitor”, “II: 2 μM • PD0325901: 1 μM • Forskolin (FSK):” for “II:”, “3-4” for “3 4”, “14. […] The cells were photographed at a magnification of 200 with a fluorescence microscope and the fluorescence intensity was measured.” for “14.”

Experiment [7] has the same test system. The experiment can be described thus: UCP1 gene mRNA, comparison of four inhibitors at 4-16 μM (Example 15). Particulars: for induction efficiency into brown adipocytes (order): compound at 4, 8, 12 or 16 μM up to Day 9, UCP1 mRNA on day 14, FIG. 15; for UCP1 gene expression (conversion to brown adipocytes): compound at 4, 8, 12 or 16 μM up to Day 9, then without compound Day 9-14, FIG. 15. On the procedure: (Day −1). In the control (Ctrl) group, the culture supernatant of the next day (Day 0) was removed by suction and the cells were cultured in a normal medium up to day 14 while substituting the medium with a fresh one once every other day. In groups other than the control (Ctrl) group, the culture supernatant was removed by suction on day 0, an adipocyte induction medium or an adipocyte induction medium added with any of ALK5 inhibitor II, SB431542, LY2157299 and D4476 at a concentration of 4 μM, 8 μM, 12 μM or 16 μM respectively was added at 1 mL/well.
Thereafter, the cells were cultured in an adipocyte induction medium free of any compound of ALK5 inhibitor II, SB431542, LY215799 and D4476 during Day 9-Day 14.

For experiment [8] the test system is unchanged. Kind of experiment: UCP1 protein immunostaining, comparison of four inhibitors (Example 16). To be noted: ALK5 inhibitor II 4 μM, LY2157299 8 μM; for UCP1 protein expression by immunostaining (induction into brown adipocytes): SB431542 4 μM, D4476 4 μM up to Day 9, day 14, FIG. 16A, 16B. As to the method:
Thereafter, the cells were cultured in an adipocyte induction medium free of any compound of ALK5 inhibitor II, SB431542, LY215799 and D4476 during Day 9-Day 14. On day 14, the medium was removed by suction from each well, and the cells were washed with PBS(−).

Experiment [9] shares this test system. Kind of experiment: UCP1, CIDEA and KCNK3 gene mRNA by real time RT-PCR (Example 17). Particulars: ALK5 inhibitor II 4 μM or LY2157299 8 μM up to Day 9, day 14, FIG. 17. On the procedure:
(Day −1). In the control (Ctrl) group, the culture supernatant of the next day (Day 0) was removed by suction and the cells were cultured in a normal medium up to day 14 while substituting the medium with a fresh one once every other day. In groups other than the control (Ctrl) group, the culture supernatant was removed by suction on day 0, and an adipocyte induction medium added with any of ALK5 inhibitor II (4 μM) and LY2157299 (8 μM) was added at 1 mL/well.
Thereafter, the cells were cultured in an adipocyte induction medium free of any compound of ALK5 inhibitor II and LY215799 during Day 9-Day 14. On day 14, the medium was removed by suction from the wells of all groups, and the cells were washed with PBS(−).

The test system is the same in experiment [10]. The experiment can be described thus: PGC-1alpha gene mRNA by real time RT-PCR (Example 5). Particulars: induction medium + T3 + Rosiglitazone, FSK 2 μM, PD0325901 1 μM, day 14, FIG. 5. As to the method:
The next day, the culture supernatant was removed by suction and, as described in the Figure, a normal medium, an adipocyte induction medium, or an adipocyte induction medium added with each compound and the like was added at 500 μL/well. […] The concentrations of the additives are as follows: • T3: 1 nM • Rosiglitazone: 1 μM • Pifithrin alpha [p53 inhibitor]: 5 μM • Forskolin (FSK): 2 μM • PD0325901: 1 μM. The culture medium was substituted by a fresh one every 3-4 days and the cells were cultured up to day 14.

For experiment [11] the test system is unchanged. The experiment can be described thus: UCP1 mRNA response of induced cells to Isoproterenol or FSK stimulation (Example 3). To be noted: cells cultured 14 days with T3, Rosiglitazone and D4476, then 10 μM Isoproterenol or FSK for 5 hr; FIG. 3. As to the method:
10 μM Isoproterenol or FSK was added to these cells as described in the Figure. As a control, a group free of the addition was also prepared. After 5 hr, the culture medium was removed from each well by suction, the cells were washed with PBS(−) and total RNA was extracted from the cells with ISOGEN II. qRT-PCR was performed in the same manner as in Example 2. The mRNA level of UCP1 gene was quantified as a ratio to […] gene mRNA and calculated with the value of fibroblast cultured in the normal medium as 1.

Turning to `Cc1ccc(C(=O)Cn2c3c(sc2=N)CCCC3)cc1` [Pifithrin alpha], the “Oil Red O staining” value in experiment [1] is given as “hardly observed”.

As for `NC(=O)c1ccc(-c2nc(-c3ccc4c(c3)OCO4)c(-c3ccccn3)[nH]2)cc1` [SB431542, 4-[4-(1,3-Benzodioxol-5-yl)-5-(pyridin-2-yl)-1H-imidazol-2-yl]benzamide], the “Oil Red O staining” value in experiment [1] is given as “Remarkable Oil Red O staining”. Also, the “mRNA expression of UCP1 gene (conversion to brown adipocytes)” value in [2] is given as “induced to brown adipocytes that express mRNA of UCP1 gene”. Moreover, in experiment [3], the “mRNA expression of CIDEA gene (conversion to brown adipocytes)” value was “converted to brown adipocytes expressing mRNA of CIDEA gene”. Also, in experiment [4], the “mRNA expression of AdipoQ gene (conversion to brown adipocytes)” value was “converted to brown adipocytes expressing mRNA of AdipoQ gene”. Also, in experiment [5], the “lipid droplets stained with BODIPY (conversion to brown adipocytes)” value was “converted to brown adipocytes having lipid droplets stained with BODIPY”. Moreover, in [6], the “UCP1 protein expression by immunostaining (conversion to brown adipocytes)” value was “converted to brown adipocytes expressing UCP1 protein”. Also, in [7], the “induction efficiency into brown adipocytes (order)” value is on record as “ALK5 inhibitor II>LY2157299>SB431541>D4476” and the “UCP1 gene expression (conversion to brown adipocytes)” value is reported as “converted to brown adipocytes strongly expressing UCP1 gene”. The “UCP1 protein expression by immunostaining (induction into brown adipocytes)” value in experiment [8] was “induced into brown adipocytes expressing UCP1 protein”.

With `Cc1cccc(-c2nn3c(c2-c2ccnc4ccc(C(N)=O)cc24)CCC3)n1` [LY2157299, 4-[5,6-dihydro-2-(6-methyl-2-pyridinyl)-4H-pyrrolo[1,2-b]pyrazol-3-yl]-6-quinolinecarboxamide], in experiment [7], the “induction efficiency into brown adipocytes (order)” value is “second most strong” and the “UCP1 gene expression (conversion to brown adipocytes)” value was “converted to brown adipocytes strongly expressing UCP1 gene”. Besides, the “UCP1 protein expression by immunostaining (induction into brown adipocytes)” value in [8] is listed as “induced into brown adipocytes expressing UCP1 protein”. Also, the “strength of induction of UCP1 expression (order)” value in experiment [8] (immunostaining day 14, FIG. 16) was “second most strong”. In experiment [9], the CIDEA gene expression entry was “induced into brown adipocytes expressing UCP1 gene, CIDEA gene and KCNK3 gene”; the KCNK3 gene expression entry is “induced into brown adipocytes expressing UCP1 gene, CIDEA gene and KCNK3 gene”; the UCP1 gene expression entry is “induced into brown adipocytes expressing UCP1 gene, CIDEA gene and KCNK3 gene”.

In the case of `O=C(NOC[C@H](O)CO)c1ccc(F)c(F)c1Nc1ccc(I)cc1F` [PD0325901], the “mRNA expression of UCP1 gene (conversion to brown adipocytes)” value in experiment [2] is on record as “induced to brown adipocytes that express mRNA of UCP1 gene”. Besides, the “mRNA expression of PGC-1alpha gene (conversion to brown adipocytes)” value in experiment [10] is “converted to brown adipocytes expressing mRNA of PGC-1alpha gene”. The “mRNA expression of AdipoQ gene (conversion to brown adipocytes)” value in [4] is on record as “converted to brown adipocytes expressing mRNA of AdipoQ gene”. For the same molecule, the “change of expression of UCP-1 protein by addition culture” value in [6] (PD0325901 1 μM or Forskolin 2 μM, day 14, FIG. 8B) is recorded as “increases”. Besides, the “UCP1 protein expression by immunostaining (conversion to brown adipocytes)” value in experiment [6] is recorded as “converted to brown adipocytes expressing UCP1 protein”.

Turning to `CC(C)NCC(O)c1ccc(O)c(O)c1` (centres unmarked) [Isoproterenol, isoproterenol], the “UCP1 mRNA expression on stimulation” value in [11] is “more strongly express UCP1 mRNA”.
